Measurements reported in PubChem BioAssay (NCI).
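Briefly, cells in 96-well plates were exposed to five compound concentrations for 48 h, and endpoints were estimated by linear interpolation. At the TGI there is no net growth.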

Tests used:
Assay in all cases: NCI anticancer screen, dose series, 48 h
M14 melanoma = test system: M14 melanoma
HCT-116 colon = test system: HCT-116 colon
NCI-H460 lung = test system: NCI-H460 lung
OVCAR-8 ovarian = test system: OVCAR-8 ovarian
MALME-3M melanoma = test system: MALME-3M melanoma
U251 CNS = test system: U251 CNS
K-562 leukemia = test system: K-562 leukemia
M19-MEL melanoma = test system: M19-MEL melanoma
HCT-15 colon = test system: HCT-15 colon
HOP-92 NSCLC = test system: HOP-92 NSCLC
MOLT-4 leukemia = test system: MOLT-4 leukemia
KM20L2 colon = test system: KM20L2 colon
DMS 273 small cell lung = test system: DMS 273 small cell lung
HL-60(TB) leukemia = test system: HL-60(TB) leukemia
IGROV1 ovarian = test system: IGROV1 ovarian
NCI-H226 lung = test system: NCI-H226 lung
SK-MEL-28 melanoma = test system: SK-MEL-28 melanoma
TK-10 renal = test system: TK-10 renal
UACC-257 melanoma = test system: UACC-257 melanoma
UACC-62 melanoma = test system: UACC-62 melanoma
OVCAR-3 ovarian = test system: OVCAR-3 ovarian
HCC-2998 colon = test system: HCC-2998 colon
NCI-H23 lung = test system: NCI-H23 lung
DLD-1 colon = test system: DLD-1 colon
SF-268 CNS = test system: SF-268 CNS
CAKI-1 renal = test system: CAKI-1 renal
SNB-75 CNS = test system: SNB-75 CNS
RPMI-8226 leukemia = test system: RPMI-8226 leukemia
SNB-19 CNS = test system: SNB-19 CNS
NCI-H522 lung = test system: NCI-H522 lung
ACHN renal = test system: ACHN renal
HT29 colon = test system: HT29 colon
SF-539 CNS = test system: SF-539 CNS
KM12 colon = test system: KM12 colon
LXFL 529 NSCLC = test system: LXFL 529 NSCLC
DMS 114 small cell lung = test system: DMS 114 small cell lung
HOP-62 NSCLC = test system: HOP-62 NSCLC
SK-MEL-5 melanoma = test system: SK-MEL-5 melanoma
SR leukemia = test system: SR leukemia
A549 NSCLC = test system: A549 NSCLC
UO-31 renal = test system: UO-31 renal
COLO 205 colon = test system: COLO 205 colon
SF-295 CNS = test system: SF-295 CNS
SW-620 colon = test system: SW-620 colon
786-0 renal = test system: 786-0 renal
CCRF-CEM leukemia = test system: CCRF-CEM leukemia
OVCAR-5 ovarian = test system: OVCAR-5 ovarian
OVCAR-4 ovarian = test system: OVCAR-4 ovarian
SK-MEL-2 melanoma = test system: SK-MEL-2 melanoma
SK-OV-3 ovarian = test system: SK-OV-3 ovarian
A498 renal = test system: A498 renal
SNB-78 CNS = test system: SNB-78 CNS
RXF 393 renal = test system: RXF 393 renal
EKVX NSCLC = test system: EKVX NSCLC
SN12C renal = test system: SN12C renal
LOX IMVI melanoma = test system: LOX IMVI melanoma

Measured: TGI

Cc1ccc(-c2cc(=S)n(-c3ccccc3)c3nc(=S)n(-c4ccccc4)c(N)c23)cc1
not listed: SK-OV-3 ovarian | A498 renal | SNB-78 CNS | RXF 393 renal | EKVX NSCLC | SN12C renal | LOX IMVI melanoma
> 100 µM: all other assays above

CCCC12Cc3c(OC)ccc(OC)c3CC(Cc3c(OC)ccc(OC)c31)C2=O (stereo not given)
not listed: HOP-92 NSCLC | KM20L2 colon | IGROV1 ovarian | UACC-62 melanoma | RPMI-8226 leukemia | COLO 205 colon | LOX IMVI melanoma
> 100 µM: all other assays above

CN(C)C(=S)/N=c1\ss/c(=N\C(=S)N(C)C)n1C1CCCCC1
24.2 µM: DMS 114 small cell lung
43.8 µM: HT29 colon
15.5 µM: NCI-H460 lung
63 µM: OVCAR-4 ovarian
not listed: HOP-92 NSCLC | DMS 273 small cell lung | DLD-1 colon | LXFL 529 NSCLC
> 100 µM: all other assays above
